Experimental data published in patent publication US20120172228A1, “ALCOHOL ALKOXYLATES AS ADJUVANTS FOR AGROCHEMICAL FORMULATIONS” (SYNGENTA CROP PROTECTION, LLC, priority 2009, published 2012).

Assays:
[1] = tested on: xanthium strumarium (XANST), setaria viridis (SETVI), abutilon theophrasti (ABUTH), chenopodium album (CHEAL); assay: Adjuvant with herbicide fomesafen, track sprayer, mean across four weed species; format: in vivo; details: fomesafen 60 or 120 g/ha; butylene oxide adjuvants 0.2%, TEHP and Turbocharge 0.5%; 7 and 13 days
Description: In this example Sample 13 from Table 1 was compared to the oil adjuvant blend Turbocharge™. The herbicide fomesafen was applied to the weed species xanthium strumarium (XANST), setaria viridis (SETVI), abutilon theophrasti (ABUTH), and chenopodium album (CHEAL) at rates of 60 or 120 grams per hectare, using a laboratory track sprayer. […] Four effects were evaluated: pesticide rate (2 levels), adjuvant type (two levels), weed species (four levels) and days after application (three levels). A standard simple linear model was constructed to judge the significance of these effects. […] A model was fitted using multiple linear regression using the statistics package JMP (SAS group). The effect of each adjuvant was pulled out from the model and the least significant differences evaluated using a Student's t method. In further examples, where a greater number than two adjuvants were compared, Tukey's HSD method was used. […]
In this example the rate response of the butylene oxide adjuvant number 13 of Table 1 was measured to display the excellent performance of this adjuvant at very low rates. compared to the adjuvant Brij™96V. […]
In this example the rate response of the butylene oxide sample 27 of Table 1 was measured, displaying the excellent performance of this adjuvant compared to the commercial adjuvant Turbocharge™, used at a rate of 0.5% by volume. […]

setaria viridis (SETVI) = assay: Adjuvant with herbicide nicosulfuron on SETVI; format: in vivo; details: nicosulfuron 30 or 60 g/ha; adjuvants 0.2% of spray water; 14 and 21 days after application
Description: In this example Sample 13 from Table 1 was compared to the oil adjuvant blend Turbocharge™. The herbicide fomesafen was applied to the weed species xanthium strumarium (XANST), setaria viridis (SETVI), abutilon theophrasti (ABUTH), and chenopodium album (CHEAL) at rates of 60 or 120 grams per hectare, using a laboratory track sprayer. Each experiment was replicated four times and the percentage damage to the weeds was assessed visually at time periods of 7, 14 and 21 days after application. Each adjuvant was applied at a rate of 0.5% of the volume of the spray water. Four effects were evaluated: pesticide rate (2 levels), adjuvant type (two levels), weed species (four levels) and days after application (three levels). […] The effect of each adjuvant was pulled out from the model and the least significant differences evaluated using a Student's t method. […]
In this example the butylene oxide adjuvant Sample 13 of Table 1 was compared to the commercial oil adjuvant blend Atplus™411F. […] Each experiment was replicated four times and the percentage damage to the weeds was assessed visually at time periods of 14 and 21 days after application. […]
In this example the responses of the butylene oxide adjuvants 13, 17, 19, 21, 22 and 23 of Table 1 were measured at an application rate of 0.2% of the volume of the spray solution used. […]

CCCCC(CC)COP(=O)(OCC(CC)CCCC)OCC(CC)CCCC (centres unmarked) [TEHP, tris 2-ethylhexyl phosphate]
Mean kill across weeds (%) [1]: 72.7%
mean efficacy (percentage damage to the weeds), SETVI (setaria viridis (SETVI)): 77.08; A %
